# According to US8937096B2, “Use of benzo-fused heterocyle sulfamide derivatives for the treatment of mania and bipolar disorder” (priority 2005, dated 2015):
# Like-named read-outs stand apart in the source and are kept apart here.
# Legend:
# [1] = test system: hippocampal kindled seizures; experiment: Rat Hippocampal Kindling Test (Interruption of Kindled State); type: in vivo; conditions: reference drugs; suppression at doses associated with toxicity
# Experimental: In the present rapid hippocampal kindling model adult male Sprague-Dawley rats (300-400 g) were surgically implanted with bipolar electrodes placed in the hippocampus. […] One week later, the rats received 2-3 supra-threshold stimulations delivered every 30 min before treatment with test compound, to ensure stability of the behavioral seizure stage and after-discharge duration. Fifteen minutes after the last stimulation, a single dose of vehicle or test compound was administered i.p. (intraperitoneally). After 15 min, each rat was then stimulated every 30 min for 3 to 4 h. After each stimulation, individual seizure scores and after-discharge durations were recorded. The group mean±SEM were calculated for each parameter. Eight rats per dose and a minimum of four doses were used to establish an ED50 value. Efficacy was measured as the ability of a compound to modify the seizure score (severity of spread) and after-discharge duration (ADD; excitability) of the generalized seizures.
# Thus, according to the theories presented in current literature (Ghaemi, S. N., Boiman, E. E., and Goodwin, F. K., Soc. of Bio. Psychiatry, (1999), vol. 45, pp 137-144; Stoll, A. L., and Severus, W. E., Harvard Rev. Psychiatry, July/August (1996), Vol. 4, No. 2, pp 77-89) a decrease in seizure score and/or ADD may also be predictive of the ability of a test compound to treat the cycling associated with bipolar disorder.
# Sprague Dawley rats = experiment: Forced Swim Test (Acute); type: in vivo, rat
# Experimental: The Forced Swim test (FST) is a commonly used procedure to screen compounds for possible antidepressant properties. This test is also known as the behavioral despair test. Rodents placed in […] tanks filled with water present a wide variety of escape or immobility behaviors. Antidepressant drugs from different classes markedly increase escape behaviors and/or decrease latency or duration of immobility.
# Venlafaxine and desipramine were dissolved in water. All drugs and their vehicles were administered orally (p.o.) by gavage in a volume of 5 mL/kg.
# Male Sprague Dawley rats (140 to 160 g) from Charles River Laboratories Wilmington, Mass. were used. The animals went through a five-day quarantine period before being subjected to the experimental procedure.
# Animals were housed in groups of four in plastic cages at an ambient temperature of 21° C. to 23° C. with an automated 12 hour light/dark cycle and access to water and commercial rodent food ad libitum. Animals were not handled more than for the routine bedding change prior to pre-test swim session.
# Each experiment consisted of seven treatment groups with n=4 animals per group. A total of 28 animals per experiment were used. Two consecutive experiments (1 and 2, 3 and 4, and 5 and 6) were exact replicas of each other. […] One treatment group of n=4 animals in each experiment was a vehicle treated group. […] In experiments 5 and 6 the effects of venlafaxine and maprotyline at 12 mg/kg, 30 mg/kg, and 60 mg/kg were tested.
# The basic apparatus consisted of a cylinder (46 cm tall×˜20 cm diameter) filled with water to 30 cm deep, at a temperature of 25±1° C. The automated version of the FST was used to perform the experiments. Plumbing for automatic filling and emptying water connected the four cylinders. Cylinders were placed in the dividing chambers 25 cm wide to separate animals visually. Each 5-minute experimental session was videotaped and analyzed in real time by computer software (Clever Systems, Inc.) for four animals at a time. The immobility, swimming, climbing and escape times were recorded by the software. The four activities are defined as follow. Immobility: the animal floats motionlessly or makes only those movements necessary to keep its head above water; Climb: the animal vigorously moves vertically while scratching the wall around the cylinder; Swim: the animal moves horizontally around in the cylinder more than necessary to keep its head above water; and Escape: sum of all vigorous active movements.
# The ability of a test compound to decrease the duration or frequency of immobility, or changes in swimming, climbing and escape times, was measured using the FST procedure described above. […] The analysis of the results in the studies described was focused on the immobility time during 5-minute test session.
# There were two swim sessions in each experiment. First, a pre-test swim session for 15 minutes was performed. Following 48 hours later was a test session of 5-minute duration. Upon completion of a swim session, each animal was placed under a heat lamp in a cage with soft bedding for approximately 15 minutes to prevent hypothermia.
# Animals were pre-treated with a vehicle or test compound after completing the pre-test swim session, then 24 hours later and then shortly prior to the 5-minute test session; i.e., three injections were given to each animal between the two swim sessions that occurred on 3 consecutive days.
# (§1) Data were analyzed using GraphPad Prism software (GraphPad Software, Inc. San Diego, Calif.). For the comparison of the effect of different doses for various drugs on immobility in the FST one-way ANOVA was used followed by Dunnett's multiple comparison test. […] The ED50 and Emax values were statistically compared using two-tail t-test.
# dominant rats = experiment: Dominant-Submissive Relations (DSR) assay: Reduction of Dominant Behavior Model (RDBM) of mania; type: in vivo, rat
# Experimental: (§2) The DSR assay is divided into two models: Reduction of Dominant Behavior Model (RDBM) of mania and Reduction of Submissive Behavior Model (RSBM) of depression. The RDBM, wherein the dominant animals are treated with test compound, is predictive of the ability of the test compound to treat mania. The RSBM, wherein the submissive animals are treated with test compound, is predictive of the ability of the test compound to treat depression.
# (§3) Male Sprague Dawley rats (140 to 160 g) from Charles River Laboratories Wilmington, Mass. were used in this assay. Shipments of rats were received at two-week intervals. Each shipment went through five-day quarantine, one-week acclimation period, and one-week selection process, followed by five-weeks of drug or vehicle treatment to those pairs selected.
# (§4) Rats were housed four per cage. Access to food was restricted to one hour per day after testing on Monday through Thursday. After testing on Friday, rats had free access to food until being fasted again on Sunday. At no time were the rats deprived of water. The food deprivation periods used had little effect on weight gain as the average weight of rats was about 300 g at the end of the study. At the conclusion of experiment rats were sacrificed by decapitation, the trunk blood and brains were collected for in vitro experiments and drug concentration measurements.
# (§5) The basic testing apparatus consisted of two chambers connected with a tunnel only large enough to allow one rat to pass through at a time. On the floor, at the mid-point of the tunnel was a container of sweetened milk. This basic apparatus was replicated, so that a total of four pairs of rats can be video tracked simultaneously. The camera can distinguish rats marked by different colors. Thus, the rats' heads were colored for the purpose of video tracking, red in one cage and yellow in the other cage. Only one animal at a time can have comfortable access to the feeder, but both animals can drink milk during the five-minute daily session. During the five-minute daily sessions, time spent in the feeder zone by each rat was recorded by the video tracking software and saved into a text file.
# The test began with a random assignment of rats into pairs. Each member of a pair was placed in an opposite chamber of the testing apparatus. The time spent in the feeder zone by each animal was recorded. During the first week (five days) of testing the animals habituate to the new environment. Dominance was assigned to the animal with the highest score during the second week of testing if three criteria were achieved. First, there must have been a significant difference (two-tailed t-test, P<0.05) between the average daily drinking scores of both animals. Second, the dominant animal score must have been at least 25% greater than the submissive animal's score. Finally, there must have been no “reversals” during the pair selection week where the putative submissive rat out-scored its dominant partner on isolated occasions. Ideally there were minimal reversals during the acclimation week as well. About twenty-five to thirty-three percent of the initial animal pairs achieved these criteria and only these pairs were continued in the study.
# (§6) Significant differences between time spent on the feeder by dominant and submissive rats were determined by ANOVA using GraphPad Prism software (GraphPad Software, Inc. San Diego, Calif.) followed by a two-tailed t-test (P<0.05). Comparisons were made between treatment groups using normalized dominance level values in paired animals. The dominance level is a value that measures social relation between paired subjects. Dominance level (DL)=FTD−FTS where FTD is the feeder time of dominant rats and FTS is the feeder time of submissive rats. The normalization was conducted according to the formula: Dominance Level(week n in %)=(Dominance Level(week n))/(Dominance Level(week 2) […]
# submissive rats = experiment: Dominant-Submissive Relations (DSR) assay: Reduction of Submissive Behavior Model (RSBM) of depression; type: in vivo, rat
# Experimental: as §2, §3, §4, §5
# The test began with a random assignment of rats into pairs. Each member of a pair was placed in an opposite chamber of the testing apparatus. The time spent in the feeder zone by each animal was recorded. During the first week (five days) of testing the animals habituate to the new environment. Dominance was assigned to the animal with the highest score during the second week of testing if three criteria were achieved. First, there must have been a significant difference (two-tailed t-test, P<0.05) between the average daily drinking scores of both animals. Second, the dominant animal score must have been at least 25% greater than the submissive animal's score. Finally, there must have been no “reversals” during the pair selection week where the putative submissive rat out-scored its dominant partner on isolated occasions. Ideally there were minimal reversals during the acclimation week as well. About twenty-five to thirty-three percent of the initial animal pairs achieved these criteria and only these pairs were continued in the study. […]
# as §6
# CH3/HeJ mice = experiment: Tail Suspension Test (Acute); type: in vivo, mouse; conditions: for Immobility Emax % of C / Mobility Emax % of C: p.o., CH3/HeJ mice, 7-min session; for ED50: Mus musculus, po, 7 min
# Experimental: In the tail suspension test (TST) for evaluating compounds for anti-depressant activity, mice are suspended by their tails to a metal or plastic rod using clip or scotch tape. The test is usually quite short, 5-7 min, and the amount of time the mice spend immobile is recorded either manually or with an automated device. Agents which have antidepressant activity, decrease the duration of immobility of mice in this test.
# The basic apparatus for the tail suspension assay consisted of a yellow plastic chamber (91×45×10 cm) divided for four arenas 25, 20, 20 and 25 cm wide separated by yellow plastic walls 0.75 cm thick. Mice were suspended by their tails using a rubber clip (7 cm long) attached to the plastic rod that was placed on the top of a testing chamber half way through its deep dimension. Each experimental session was videotaped and analyzed for four animals in the real time by computer software (“Depression Scan” Clever Sys Inc.). The computer justification of immobility was calibrated with the use of animals dosed with lorazepam while justification of movement was calibrated with the high dose of desipramine treated animals. […] The settings were adjusted separately for dark (CH3/HeJ and C57BI/6J strains) and white mice (Balb/cJ and A/J strains). A yellow background was used for dark mice and a blue background was used to record movements of white mice.
# The ability of a test compound to decrease the duration of immobility, or increase mobility was measured using the TST procedure described above.
# as §1, with “TST” for “FST”, “analyses of variance (ANOVA) were” for “ANOVA was”, “were” for “were statistically”, “two-way ANOVA and Bonferroni post-hoc test.” for “two-tail t-test.”
# Positive controls included duloxetine (DLX), venlafaxine (VLX) and desipramine (DMI) which were dissolved in 0.5% methylcellulose and lorazepam (LOR) which was suspended in 0.5% of methylcellulose in water by sonication. All drugs and vehicles were administered orally (p.o.) by gavage in a volume of 10 mL/kg.
# The mice were ordered 5 weeks old and at the beginning of experiment their weight was 20±5 g. Animals were housed in groups of four in plastic cages at an ambient temperature of 21° C. to 23° C. with an automated 12/12 hours light/dark cycle and access to water and a commercial rodent food ad libitum.
# Each experiment consisted of seven treatment groups with four animals per group. A total of 28 animals per experiment were used. Every two consecutive experiments (1 & 2, 3 & 4, 5 & 6 and 7 & 8) were exact replicas of each other. […] One treatment group of four animals in each experiment was a vehicle treated group. In addition to the vehicle treated group, the effects of DMI at 6 mg/kg, 12 mg/kg, 30 mg/kg, 60 mg/kg and 120 mg/kg and LOR at 5 mg/kg were tested in experiments 1 and 2. […] In experiments 5 and 6 the effects of DLX at 6 mg/kg, 12 mg/kg, 30 mg/kg, 60 mg/kg, 120 mg/kg and LOR at 5 mg/kg were tested.
smiles,measurement,setting,value
NC(=O)N1c2ccccc2C=Cc2ccccc21 [Carbamazepine],seizure activity in the hippocampal kindling model,[1],significantly suppressed seizure activity
"O=C1Nc2ccc(Cl)cc2C(c2ccccc2Cl)=NC1O (stereo not shown) [Lorazepam, lorazepam]",effect on the rats' immobility time,"Sprague Dawley rats; 1 mg/kg p.o., negative control",no significant effect
"CCCC(CCC)C(=O)[O-].[Na+] [sodium valproate, reference compound]",dominance level,dominant rats; 30 mg/kg i.p. QD,decreased dominance level after the second week of treatment
same,difference between dominant and submissive rats lost,dominant rats; dominant rats treated i.p. QD at 30 mg/kg,lost after first week of treatment
same,permissiveness of the treated dominant rats,dominant rats; treated dominant rats permitted submissive partners to increase time on the feeder,observed to increase
"[Cl-].[Li+] [lithium chloride, reference compound]",dominance level effect vs control,dominant rats; 100 mg/kg,significantly different from control only after the third week of treatment
"CNCCC(Oc1ccc(C(F)(F)F)cc1)c1ccccc1 (stereo not shown) [fluoxetine, reference compound]",submissiveness during first week of treatment,"submissive rats; fluoxetine 10 mg/kg i.p., Compound #8 treated groups p.o.",increased submissiveness during first week of treatment
same,significant difference between dominant and submissive rats lost,submissive rats; submissive rats treated i.p. at 10.0 mg/kg,lost after third week of treatment
"CNCCCN1c2ccccc2CCc2ccccc21 [DMI, desipramine]",Immobility Emax % of C,CH3/HeJ mice,38.5 % of C
same,Mobility Emax % of C,CH3/HeJ mice,195.7 % of C
same,Emax (immobility) in the FST,Sprague Dawley rats; p.o.,50.0 ± 8.4 s
same,doses at which effect on immobility was statistically significant vs vehicle,Sprague Dawley rats; p.o.,"6 mg/kg, 12 mg/kg, 30 mg/kg, and 60 mg/kg"
CCC1(C)CC(=O)NC1=O (stereo not shown) [Ethosuximide],seizure activity in the hippocampal kindling model,[1],ineffective
CNCCCC12CCC(c3ccccc31)c1ccccc12 [maprotyline],doses at which effect on immobility was statistically significant vs vehicle,Sprague Dawley rats; p.o.,30 mg/kg and 60 mg/kg
"CNCC[C@H](Oc1cccc2ccccc12)c1cccs1 [DLX, duloxetine]",ED50,CH3/HeJ mice; read-out: Immobility ED50,31.4 mg/kg
same,ED50,CH3/HeJ mice; read-out: Mobility ED50,61.5 mg/kg
same,Immobility Emax % of C,CH3/HeJ mice,80.4 % of C
same,Mobility Emax % of C,CH3/HeJ mice,175.5 % of C
O=C1NC(=O)C(c2ccccc2)(c2ccccc2)N1 [Phenytoin],seizure activity in the hippocampal kindling model,[1],significantly suppressed seizure activity
